From patent publication US20150065440A1 (Progen Pharmaceuticals Limited, priority 2007, published 2015) come the findings set out here.

One series concerns the target T1, VEGF (Homo sapiens, UniProt P15692).
T1 sequence (P15692 207-395): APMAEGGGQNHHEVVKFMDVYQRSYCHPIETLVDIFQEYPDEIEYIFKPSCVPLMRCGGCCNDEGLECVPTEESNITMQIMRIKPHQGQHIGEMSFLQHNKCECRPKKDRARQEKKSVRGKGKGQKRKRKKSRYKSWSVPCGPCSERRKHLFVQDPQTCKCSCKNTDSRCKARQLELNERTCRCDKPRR
In words: Growth factor binding assay (SPR solution affinity), VEGF. Particulars: HBS-EP buffer, 25° C. The method in brief: (§1)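 Kd measured by SPR solution affinity: fixed growth factor with varying ligand competing for heparin-coated sensorchip, 25 °C. Buffer HBS-EP pH 7.4 (150 mM NaCl) for FGF-1 and VEGF; FGF-2 with 0.3 M NaCl. Duplicate values averaged.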

For another series, the target named is FGF-1 (Homo sapiens, UniProt P05230). In words: Growth factor binding assay (SPR solution affinity), FGF-1. Particulars: SPR, HBS-EP buffer, 25° C.; read-out: Kd FGF-1.
The target in another series is FGF-2 (Homo sapiens, UniProt P09038). In words: Growth factor binding assay (SPR solution affinity), FGF-2. The method, boiled down:
as §1

For series [1], the system named is pooled normal human plasma. Description: Anticoagulant activity, APTT. The conditions noted are these: 0.1 mg/mL in normal pooled human plasma. The procedure: APTT measurements were performed on a STAGO STA-Compact Coagulation Analyser using standard protocols according to the manufacturer's instructions. Unfractionated heparin (UFH) was used as a control.
Series [2] relates to normal pooled human plasma. Description: Anticoagulant activity, Heptest. Particulars: 0.1 mg/mL in normal pooled human plasma.
Another series concerns HSV-2. In words: Viral plaque number-reduction assay, HSV-2. The conditions noted are these: for Selective index CC50/IC50 HSV-2: GMK AH1 cells. The method in brief:
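200 PFU virus premixed 10 min with compound (100 μg/mL screen) and kept throughout infection. HSV plaques in GMK AH1 cells, RSV (strain A-2) in HEp-2 cells. Methylcellulose overlay, 37 °C, crystal violet staining after 2 days (HSV-2) or 3 days (HSV-1); plaque numbers counted.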

For a further series, the system named is RSV. Description: Viral plaque number-reduction assay, RSV. The conditions noted are these: for Selective index CC50/IC50 RSV: HEp-2 cells. The procedure:
African green monkey kidney (GMK AH1) cells^46 were cultured in Eagle's minimum essential medium (EMEM) supplemented with 2% calf serum, 0.05% Primaton RL substance (Kraft Inc., Norwich, USA) and antibiotics. Human epidermoid carcinoma (HEp-2) cells were cultured in Dulbecco's modified EMEM (DMEM) supplemented with 10% fetal calf serum and antibiotics. […] The RSV strain A-2^50 was used. The RSV stock was prepared as described by Hallak et al.^51 and stored at −70° C. in the presence of 40% sucrose^52.
The viral infectivity (the plaque number-reduction) assay and the plaque size-reduction assay were carried out as described previously^17. […] Subsequently, the cells were washed with 2 mL of EMEM and overlaid with 1% methylcellulose solution in EMEM. The plaques were visualized by staining with crystal violet solution after 2 (HSV-2) or 3 (HSV-1) days of incubation at 37° C. […] When the compounds were screened for anti-HSV or anti-RSV activity, mixtures of 200 PFU of the virus and the test compound (100 μg/mL) in serum-free EMEM were incubated for 10 min at room temperature before addition to cells and during the entire period of viral infection of cells and the development of viral plaques. In the plaque size-reduction assay, the compounds were added to cells (in methylcellulose overlay medium) after 2 h period of virus infection of cells in the absence of the inhibitor. After 2-3 days of incubation at 37° C., the viral plaques were visualized by staining the cells with 1% solution of crystal violet. For each compound tested, the images of twenty neighboring plaques were captured using a Leica DC300 digital camera attached to a Leitz-Wetzlar Diavert microscope. The area of each plaque was determined using IM500 image software (Leica). Similar protocols were used for RSV, except that the assays were performed in HEp-2 cells and DMEM supplemented with 2% heat-inactivated fetal calf serum was used instead of EMEM.

Series [3] concerns the target T2, recombinant human heparanase (Homo sapiens, UniProt Q9Y251).
T2 sequence (Q9Y251 158-543 limits assumed): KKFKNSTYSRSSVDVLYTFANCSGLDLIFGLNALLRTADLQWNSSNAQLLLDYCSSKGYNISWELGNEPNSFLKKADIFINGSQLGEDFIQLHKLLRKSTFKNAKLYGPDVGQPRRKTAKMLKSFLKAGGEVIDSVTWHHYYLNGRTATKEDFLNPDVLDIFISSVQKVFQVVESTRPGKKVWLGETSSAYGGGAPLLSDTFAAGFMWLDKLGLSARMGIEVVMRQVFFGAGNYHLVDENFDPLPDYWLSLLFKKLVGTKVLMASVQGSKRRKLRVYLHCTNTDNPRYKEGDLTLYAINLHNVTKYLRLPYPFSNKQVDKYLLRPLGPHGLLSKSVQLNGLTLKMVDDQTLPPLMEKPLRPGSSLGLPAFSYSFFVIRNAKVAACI
T2 sequence (Q9Y251 36-109 limits assumed): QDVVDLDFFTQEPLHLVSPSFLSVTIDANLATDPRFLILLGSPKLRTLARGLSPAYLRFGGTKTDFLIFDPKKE
Description: Heparanase inhibition assay (fondaparinux cleavage, WST-1). The conditions noted are these: read-out: Ki Heparanase; IC50 converted into Ki; fondaparinux 100 μM, pH 5.0. Background: Tetrazolium dyes change colour on reduction, which living cells bring about.
Description: In the presence of an inhibitor the catalytic activity of heparanase is reduced, and the amount of disaccharide produced and the optical density of the solution are both decreased. The percent inhibition and IC50 of the inhibitor are determined from measurement of the optical density (OD) over a range of inhibitor concentrations.
Assays were carried out in 40 mM sodium acetate buffer, pH 5.0, as follows. […] A blue colour was developed by incubation of the plates at 60° C. for 60 min. […] The IC50 value for each compound was evaluated and converted into a Ki (inhibition constant) using the expression

The mark [4] stands for this setting: SPR, HBS-EP buffer containing 0.3 M NaCl, 25° C.; read-out: Kd FGF-2.

Molecules are shown by their SMILES. Read-outs that look alike come from different tables or passages of the source. Bounds are passed on as bounds.

FGF-2, sequence (P09038 143-288, species assumed): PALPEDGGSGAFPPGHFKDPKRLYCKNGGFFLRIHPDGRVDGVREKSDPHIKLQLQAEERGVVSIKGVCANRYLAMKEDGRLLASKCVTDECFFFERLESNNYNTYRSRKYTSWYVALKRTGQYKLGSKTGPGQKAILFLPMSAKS
FGF-1, sequence (P05230 whole entry, species assumed): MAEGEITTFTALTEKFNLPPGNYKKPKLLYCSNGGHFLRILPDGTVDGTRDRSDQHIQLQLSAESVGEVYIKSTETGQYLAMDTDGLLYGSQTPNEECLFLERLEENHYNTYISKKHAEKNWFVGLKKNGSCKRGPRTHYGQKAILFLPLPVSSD

The term Kd denotes the equilibrium constant for the complex coming apart. What is called Ki is the dissociation constant of the complex between target and ligand, obtained from inhibition or displacement. For `CCCCCCCCCCCCOC1OC(COS(=O)(=O)O)C(OS(=O)(=O)O)C(OS(=O)(=O)O)C1OC1OC(COS(=O)(=O)O)C(OS(=O)(=O)O)C(OC2OC(COS(=O)(=O)O)C(OS(=O)(=O)O)C(OC3OC(COS(=O)(=O)O)C(OS(=O)(=O)O)C(OC4OC(COS(=O)(=O)O)C(OS(=O)(=O)O)C(OS(=O)(=O)O)C4OS(=O)(=O)O)C3OS(=O)(=O)O)C2OS(=O)(=O)O)C1OS(=O)(=O)O` [Compound 4, Dodecyl 2,3,4,6-tetra-O-sodium sulfonato-α-D-mannopyranosyl-(1→3)-2,4,6-tri-O-sodium sulfonato-α-D-mannopyranosyl-(1→3)-2,4,6-tri-O-sodium sulfonato-α-D-mannopyranosyl-(1→3)-2,4,6-tri-O-sodium sulfonato-α-D-mannopyranosyl-(1→2)-3,4,6-tri-O-sodium sulfonato-α-D-mannopyranoside], the Kd at VEGF is 12 ± 3 nM; on FGF-1, 6 ± 3 nM; at FGF-2 (setting [4]) it was 480 ± 70 nM. Also, in series [1], the APTT came out at 125.9 s. Further, the Heptest in series [2] is given as 64.2 s. Moreover, in the series with HSV-2, the “Selective index CC50/IC50 HSV-2” value is on record as more than 444. Further, in the series with RSV, the “Selective index CC50/IC50 RSV” value is recorded as more than 87. In addition, the Ki in series [3] was found to be 4.2 ± 0.5 nM.

As for `CC(C)CCCC(C)C1CCC2C3CCC4CC(OC5OC(COS(=O)(=O)O)C(OS(=O)(=O)O)C(OS(=O)(=O)O)C5OC5OC(COS(=O)(=O)O)C(OS(=O)(=O)O)C(OC6OC(COS(=O)(=O)O)C(OS(=O)(=O)O)C(OC7OC(COS(=O)(=O)O)C(OS(=O)(=O)O)C(OS(=O)(=O)O)C7OS(=O)(=O)O)C6OS(=O)(=O)O)C5OS(=O)(=O)O)CCC4(C)C3CCC12C` [Compound 20, 3β-Cholestanyl 2,3,4,6-tetra-O-sodium sulfonato-α-D-mannopyranosyl-(1→3)-2,4,6-tri-O-sodium sulfonato-α-D-mannopyranosyl-(1→3)-2,4,6-tri-O-sodium sulfonato-α-D-mannopyranosyl-(1→2)-3,4,6-tri-O-sodium sulfonato-α-D-mannopyranoside], the Kd on VEGF was found to be 22 ± 6 nM; at FGF-1 it was 0.6 ± 0.5 nM; on FGF-2 (read-out: Kd FGF-2; SPR, HBS-EP buffer containing 0.3 M NaCl, 25° C.), 160 ± 40 nM. In series [1], this molecule showed an APTT of 94.0 s. In series [2], this molecule displayed a Heptest of 28.0 s. Moreover, the “Selective index CC50/IC50 HSV-2” value in the series with HSV-2 was 100. In addition, the “Selective index CC50/IC50 RSV” value in the series with RSV is reported as 66. In addition, the Ki in series [3] amounted to 5.8 ± 1.5 nM.

As usually defined, the IC50 is the concentration that gives 50% inhibition. With `CC(C)CCC[C@@H](C)[C@H]1CC[C@H]2[C@@H]3CC[C@H]4C[C@@H](O[C@H]5O[C@H](COS(=O)(=O)O)[C@@H](OS(=O)(=O)O)[C@H](OS(=O)(=O)O)[C@@H]5O[C@H]5O[C@H](COS(=O)(=O)O)[C@@H](OS(=O)(=O)O)[C@H](OS(=O)(=O)O)[C@@H]5OS(=O)(=O)O)CC[C@]4(C)[C@H]3CC[C@]12C` [Compound 33, 3β-Cholestanyl 2,3,4,6-tetra-O-sodium sulfonato-α-D-mannopyranosyl-(1→2)-3,4,6-tri-O-sodium sulfonato-α-D-mannopyranoside], the Kd came out at 1300 ± 300 nM at VEGF, 270 ± 30 nM at FGF-1 and 1570 ± 150 nM at FGF-2 (setting [4]). The molecule also returned an APTT in series [1] of 40.6 s. This molecule gave a Heptest in series [2] of 25.5 s. For the same molecule, the IC50 in the series on HSV-2 (Human alphaherpesvirus 2, read-out: HSV-2 IC50) was 0.7 µg/mL; with RSV (human respiratory syncytial virus, read-out: RSV IC50), 1.8 µg/mL. In addition, the Ki in series [3] stood at 22.3 ± 1.6 nM.
